Laboratory results reported in PMC6359284, “Identification, Characterization, and Optimization of Integrin αvβ6-Targeting Peptides from a One-Bead One-Compound (OBOC) Library: Towards the Development of Positron Emission Tomography (PET) Imaging Agents” (Molecules, 2019).
“And” between values parts separate entries of the source, which are not always exact repeats. Identical values can stand only once. Like-named read-outs stand apart in the source and are kept apart here. Square brackets hold non-standard residues; d marks the D form. Primed or numbered codes have the meaning given here. Ends that are not written are not given here. Peptide text beside a SMILES is read from it. * marks the point of attachment. (18F)FB = 4-[18F]fluorobenzoyl, radiolabelled form of FB, O=C(c1ccc([18F])cc1)*; PEG12 = NCCOCCOCCOCCOCCOCCOCCOCCOCCOCCOCCOCCOCCC(=O)O; Benzoyl(4-F) = O=C(c1ccc(F)cc1)*; PEG28′ = not defined here

Columns and labels:
integrin αvβ6 = molecular target: T1, integrin αvβ6 (Homo sapiens, UniProt P06756+P18564); assay: Competitive binding ELISA, purified integrin αvβ6; conditions: for selectivity ratio for integrin αvβ6 compared to αvβ5: from ELISA IC50 values
T1 construct: purchased R&D Systems
Protocol: (§1) Competitive binding ELISAs were performed to evaluate the binding affinity of each peptide relative to each integrin’s biotinylated natural ligand (transforming growth factor beta 1 latency-associated peptide or TGFβ1-LAP (G&P Biosciences, Santa Clara, CA, USA) for integrins αvβ6 and αvβ8, fibronectin (Thermo Fisher, Waltham, MA, USA) for integrin αvβ1, and vitronectin (Thermo Fisher) for integrins αvβ3 and αvβ5), as previously described. In brief, anti-αv antibody (P2W7, 5 μg/mL, Abcam) was plated (50 μL/well) at 37 °C for 1 h, washed with PBS (3×), and blocked overnight with blocking buffer (300 μL/well, 5% bovine serum albumin (BSA), 1% Tween 20, in PBS), followed by washing with PBS (3×). […] The plate was incubated at 37 °C for 1 h, then washed with wash buffer (3×). A 1:1000 dilution of ExtrAvidin Horseradish Peroxidase (HRP) was added to each well (50 μL/well), incubated at 37 °C for 1 h, and then washed with wash buffer (3×). The ExtrAvidin HRP was detected with 3,3′,5,5′-tetramethylbenzidine (50 μL/well, Promega, Madison, WI, USA) for 10–15 min at room temperature. The reaction was stopped by adding 1N H2SO4 (50 μL/well) and the absorbance was measured in a Multiscan Ascent plate reader (Thermo Fisher) at 450 nm. Half-maximal inhibitory concentration (IC50) of peptides was determined fitting to sigmoidal dose-response model in GraphPad Prism 5.0 (San Diego, CA, USA).

[1] = Serum stability assay in mouse serum; format: in vitro ADME; conditions: 37 °C, radio-RP-HPLC
Protocol: Peptide stability was evaluated in mouse serum as previously described. In brief, formulated ^18F-radiolabeled peptide (~3.7 MBq in PBS) was incubated with mouse serum (500 μL, Sigma Aldrich, St. Louis, MO) at 37 °C for 1 h.

DX3puroβ6 (αvβ6+) cells = assay: 18F-radiolabeled peptide cell binding assay, αvβ6+ cells; format: cell-based; conditions: 60 min incubation at 37 °C, n = 3
Protocol: (§2) Cell binding assay was performed as previously described. […] The ^18F-radiolabeled peptide was prepared in a stock solution of 148 kBq in 1 mL PBS (pH 7.2). Aliquots of each ^18F-radiolabeled peptide (50 μL, 7.4 kBq per sample) were added to each cell sample and incubated at 37 °C for 1 h with frequent suspension. After incubation, each sample was centrifuged and the supernatant was collected. The cell pellet was washed with 500 μL PBS, centrifuged, and the supernatant was combined with the previously collected supernatant samples. The cell pellet was resuspended in 600 μL PBS and transferred to gamma counter tubes. All pellet and supernatant samples were measured in a Wizard 1470 gamma counter (Perkin Elmer, Waltham, MA, USA). Cell binding percentage for each cell line was calculated as the radioactivity associated, with pellet divided by the total radioactivity associated with both the pellet and supernatant.

integrin αvβ8 = molecular target: T2, integrin αvβ8 (Homo sapiens, UniProt P06756+P26012); assay: Competitive binding ELISA, purified integrin αvβ8; conditions: competitive ELISA vs biotinylated TGFβ1-LAP, n = 3
T2 construct: purchased R&D Systems
Protocol: as §1

DX3puro (αvβ6−) cells = assay: 18F-radiolabeled peptide cell binding assay, αvβ6− cells; format: cell-based; conditions: 60 min incubation at 37 °C, n = 3
Protocol: as §2

[2] = competitive ELISA vs biotinylated TGFβ1-LAP, n = 3, read-out: IC50 (μM) αvβ6

| Compound | IC50 (integrin αvβ6; [2]) [µM] | % Intact (1 h) [1] | % binding to DX3puroβ6 (αvβ6+) cells (DX3puroβ6 (αvβ6+) cells) | % binding to DX3puro (αvβ6−) cells (DX3puro (αvβ6−) cells) | further results |
| --- | --- | --- | --- | --- | --- |
| CC(=O)N[C@H](C(=O)NCC(=O)N[C@@H](CC(=O)O)C(=O)N[C@@H](CC(C)C)C(=O)N[C@H](C(=O)N[C@@H](Cc1ccc(O)cc1)C(=O)N[C@@H](CC(C)C)C(=O)N[C@@H](CCCCN)C(=O)N[C@@H](CCCCNC(=O)c1ccc(F)cc1)C(N)=O)[C@@H](C)O)C(C)C [1b] | > 100 | – | – | – | – |
| VGDLTYLKK([^18F]FB)KVART [[^18F]1i] | – | > 99% and 99% | 5.0 ± 0.5% | – | – |
| CC(C)C[C@H](NC(=O)[C@H](Cc1ccc(O)cc1)NC(=O)[C@@H](NC(=O)[C@H](CC(C)C)NC(=O)[C@H](CC(=O)O)NC(=O)CNC(=O)[C@@H](NC(=O)c1ccc(F)cc1)C(C)C)[C@@H](C)O)C(=O)N[C@@H](CCCCN)C(=O)N[C@@H](CCCCN)C(N)=O [1a] ({Benzoyl(4-F)}-VGDLTYLKK-NH2) | 0.81 ± 0.09 | – | – | – | – |
| CC(C)C[C@H](NC(=O)[C@H](Cc1ccc(O)cc1)NC(=O)[C@@H](NC(=O)[C@H](CC(C)C)NC(=O)[C@H](CC(=O)O)NC(=O)CNC(=O)[C@@H](NC(=O)c1ccc(F)cc1)C(C)C)[C@@H](C)O)C(=O)N[C@@H](CCCCN)C(=O)N[C@@H](CCCCNC(=O)c1ccc(F)cc1)C(=O)NCCOCCOCCOCCOCCOCCOCCOCCOCCOCCOCCOCCOCCOCCOCCOCCOCCOCCOCCOCCOCCOCCOCCOCCOCCOCCOCCOCCOCCC(N)=O [1h] | 1.47 ± 0.23 | > 95% | < 2% | – | – |
| CSCC[C@H](NC(=O)[C@H](CC(C)C)NC(=O)[C@H](CC(=O)O)NC(=O)CNC(=O)[C@@H](N)CCCNC(=N)N)C(=O)N[C@@H](CCCCN)C(=O)N[C@@H](CC(C)C)C(=O)N[C@@H](C)C(=O)N[C@@H](CCCCNC(=O)c1ccc(F)cc1)C(N)=O [compound 2] (H-RGDLMKLAK(Benzoyl(4-F))-NH2; N-terminus assumed) | – | – | – | – | IC50 (integrin αvβ6): 0.95 ± 0.17 µM; selectivity ratio for integrin αvβ6 compared to αvβ5 (integrin αvβ6): > 100 :1; IC50 (integrin αvβ8): 2.6 ± 0.35 µM |
| CC(C)C[C@H](NC(=O)[C@H](Cc1ccc(O)cc1)NC(=O)[C@@H](NC(=O)[C@H](CC(C)C)NC(=O)[C@H](CC(=O)O)NC(=O)CNC(=O)[C@@H](N)C(C)C)[C@@H](C)O)C(=O)N[C@@H](CCCCN)C(=O)N[C@@H](CCCCNC(=O)c1ccc(F)cc1)C(=O)NCCOCCOCCOCCOCCOCCOCCOCCOCCOCCOCCOCCOCCOCCOCCOCCOCCOCCOCCOCCOCCOCCOCCOCCOCCOCCOCCOCCOCCC(N)=O [1f] | 3.7 ± 1 | > 95% | < 2% | – | – |
| VGDLTYLKK([^18F]FB)-PEG28 (VGDLTYLKK((18F)FB)[PEG28′]) [[^18F]1f] | – | > 95% and 95% | less than 2% | less than 2% | – |
| VGDLTYLKK([^18F]FB) (VGDLTYLKK((18F)FB)-NH2) [[^18F]1] | – | 25% | 12.8 ± 1.9% | 11.7 ± 2.2% | – |
| RGDLRELAK([^18F]FB) (RGDLRELAK((18F)FB)) [[^18F]5] | – | 0% | 6.4 ± 0.1% | 5.9 ± 0.8% | – |
| CC(C)C[C@H](NC(=O)[C@H](CC(=O)O)NC(=O)CNC(=O)[C@@H](N)CCCNC(=N)N)C(=O)N[C@@H](C)C(=O)N[C@@H](CC(=O)O)C(=O)N[C@@H](CC(C)C)C(=O)N[C@@H](CCCNC(=N)N)C(=O)N[C@@H](CCCCNC(=O)c1ccc(F)cc1)C(N)=O [compound 3] (H-RGDLADLRK(Benzoyl(4-F))-NH2; N-terminus assumed) | – | – | – | – | selectivity ratio for integrin αvβ6 compared to αvβ5 (integrin αvβ6): > 100 :1 |
| CC(=O)N[C@H](C(=O)NCC(=O)N[C@@H](CC(=O)O)C(=O)N[C@@H](CC(C)C)C(=O)N[C@H](C(=O)N[C@@H](Cc1ccc(O)cc1)C(=O)N[C@@H](CC(C)C)C(=O)N[C@@H](CCCCN)C(=O)N[C@@H](CCCCNC(=O)c1ccc(F)cc1)C(=O)NCCOCCOCCOCCOCCOCCOCCOCCOCCOCCOCCOCCOCCOCCOCCOCCOCCOCCOCCOCCOCCOCCOCCOCCOCCOCCOCCOCCOCCC(N)=O)[C@@H](C)O)C(C)C [1g] | > 100 | – | – | – | – |
| RGDLADLRK([^18F]FB) (RGDLADLRK((18F)FB)) [[^18F]3] | – | 0% | 7.7 ± 3.8% | 5.3 ± 2.8% | – |
| CC(C)C[C@H](NC(=O)[C@H](Cc1ccc(O)cc1)NC(=O)[C@@H](NC(=O)[C@H](CC(C)C)NC(=O)[C@H](CC(=O)O)NC(=O)CNC(=O)[C@@H](N)C(C)C)[C@@H](C)O)C(=O)N[C@@H](CCCCN)C(=O)N[C@@H](CCCCNC(=O)c1ccc(F)cc1)C(N)=O [compound 1] (H-VGDLTYLKK(Benzoyl(4-F))-NH2; N-terminus assumed) | – | – | – | – | selectivity ratio for integrin αvβ6 compared to the other integrins (αvβ1, αvβ3, and αvβ5) (integrin αvβ6): > 200 :1; IC50 (integrin αvβ6; read-out: IC50 (μM) αvβ6): 0.45 ± 0.06 µM; IC50 (integrin αvβ8): 5.3 ± 0.14 µM |
| [^18F]FB-PEG28-A20FMDV2-K16R-PEG28 [reference compound] | – | – | 77.1 ± 0.1% | 1.5 ± 0.1% | – |
| FB-VGDLTYLKK([^18F]FB)-PEG28 ({Benzoyl(4-F)}-VGDLTYLKK((18F)FB)[PEG28′]) [[^18F]1h] | – | > 95% and 95% | less than 2% | less than 2% | – |
| CN[C@H](C(=O)NCC(=O)N[C@@H](CC(=O)O)C(=O)N[C@@H](CC(C)C)C(=O)N[C@H](C(=O)N[C@@H](Cc1ccc(O)cc1)C(=O)N[C@@H](CC(C)C)C(=O)N[C@@H](CCCCN)C(=O)N[C@@H](CCCCNC(=O)c1ccc(F)cc1)C(N)=O)[C@@H](C)O)C(C)C [1c] | > 5 | – | – | – | – |
| CC(C)C[C@H](NC(=O)[C@H](Cc1ccc(O)cc1)NC(=O)[C@@H](NC(=O)[C@H](CC(C)C)NC(=O)[C@H](CC(=O)O)NC(=O)CNC(=O)[C@@H](NC(=O)CCOCCOCCOCCOCCOCCOCCOCCOCCOCCOCCOCCOCCN)C(C)C)[C@@H](C)O)C(=O)N[C@@H](CCCCN)C(=O)N[C@@H](CCCCNC(=O)c1ccc(F)cc1)C(N)=O [1d] (H-[PEG12]VGDLTYLKK(Benzoyl(4-F))-NH2; N-terminus assumed) | > 100 | – | – | – | – |
| [^18F]FB-VGDLTYLKK ({(18F)FB}-VGDLTYLKK-NH2) [[^18F]1a] | – | – | less than 2% | less than 2% | – |
| CC(C)C[C@H](NC(=O)[C@H](Cc1ccc(O)cc1)NC(=O)[C@@H](NC(=O)[C@H](CC(C)C)NC(=O)[C@H](CC(=O)O)NC(=O)CNC(=O)[C@@H](NC(=O)c1ccc(F)cc1)C(C)C)[C@@H](C)O)C(=O)N[C@@H](CCCCN)C(=O)N[C@@H](CCCCNC(=O)c1ccc(F)cc1)C(N)=O [1e] | 0.84 ± 0.36 | – | – | – | – |
